Patent publication US10144715B2, “Piperazine derivatives as liver X receptor modulators” (priority 2014, dated 2018)
Read-outs that look alike come from different tables or passages of the source.

Experiments:
LXR α LBD protein [1] = biological target: T1, LXR α LBD protein (Homo sapiens (Human), UniProt Q13133); test: LXR α radioligand binding assay (SPA, competition with [3H]TO901317); conditions: read-out: LXRα Binding Ki
[2] = biological target: T2, Gal4 DNA binding domain fused to the LBD of LXRα in HEK293 cells (Homo sapiens (Human), UniProt Q13133); test: LXR luciferase transcriptional reporter gene assay, agonist mode, LXRα; assay type: cell-based; conditions: for EC50: read-out: Cell LXRα EC50
LXR α LBD protein [3] = biological target: T1, LXR α LBD protein; test: Human LXRα coactivator recruitment FRET assay, agonist mode; assay type: biochemical; conditions: agonist mode
Method in brief: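 Time-resolved FRET (delay 100 µs, window 200 µs) after 2 h rt incubation of compound with 10 nM (2×) GST-tagged LXRα or LXRβ LBD plus 200 nM fluorescein-SRC2-3 and 20 nM Tb-anti-GST (4×). Percent control vs concentration fit to four-parameter model; EC50 at inflection.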

[4] = biological target: T2, Gal4 DNA binding domain fused to the LBD of LXRα in HEK293 cells; test: LXR luciferase transcriptional reporter gene assay, antagonist mode (200 nM T0901317), LXRα; assay type: cell-based; conditions: for IC50: read-out: Cell LXRα IC50
LXR β LBD protein = LXR β LBD protein (Homo sapiens (Human), UniProt P55055); test: biochemical; assay type: binding; conditions: read-out: LXRβ Binding Ki
[5] = biological target: T3, Gal4 DNA binding domain fused to the LBD of LXRβ in HEK293 cells (Homo sapiens (Human), UniProt P55055); test: cell-based; assay type: cell-based
[6] = biological target: T3, Gal4 DNA binding domain fused to the LBD of LXRβ in HEK293 cells; test: cell-based
[7] = antagonist mode, 200 nM T0901317, HEK293 reporter gene assay

T2 sequence (Q13133 209-447): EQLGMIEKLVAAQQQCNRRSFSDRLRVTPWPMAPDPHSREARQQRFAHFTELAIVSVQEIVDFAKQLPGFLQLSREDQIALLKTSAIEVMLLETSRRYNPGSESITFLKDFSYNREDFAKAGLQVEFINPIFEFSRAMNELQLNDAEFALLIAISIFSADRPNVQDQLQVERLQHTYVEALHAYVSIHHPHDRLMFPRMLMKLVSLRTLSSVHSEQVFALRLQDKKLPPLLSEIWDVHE
T1 sequence (Q13133 209-447): as above
T3 sequence (P55055 222-460 limits assumed): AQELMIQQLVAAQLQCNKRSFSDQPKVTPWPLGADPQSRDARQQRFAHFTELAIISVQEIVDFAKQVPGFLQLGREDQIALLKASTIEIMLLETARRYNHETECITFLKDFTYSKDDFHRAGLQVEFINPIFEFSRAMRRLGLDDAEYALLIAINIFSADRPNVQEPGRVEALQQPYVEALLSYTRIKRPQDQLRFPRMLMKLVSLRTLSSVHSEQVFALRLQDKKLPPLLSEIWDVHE
Sequence of LXR β LBD protein (P55055 222-460 limits assumed): as above

| Cell LXRβ efficacy [6] | SMILES | Ki (LXR α LBD protein [1]) | Cell LXRα efficacy [2] | EC50 [2] | EC50 (LXR α LBD protein [3]) | FRET LXRα efficacy (LXR α LBD protein [3]) | Cell LXRα efficacy [4] | IC50 [4] | EC50 ([2]; agonist mode) | IC50 [4, 7] | Ki (LXR β LBD protein) | IC50 [5] | Cell LXRβ efficacy [5, 7] | EC50 [6] | Cell LXRβ efficacy ([6]; agonist mode) | Cell LXRβ efficacy [5] |
| --- | --- | --- | --- | --- | --- | --- | --- | --- | --- | --- | --- | --- | --- | --- | --- | --- |
|  | CS(=O)(=O)c1cccc(N2CCN(C[C@H]3CC[C@H](C(F)F)CC3)[C@@H](c3ccccc3)C2)c1 (single isomer, unassigned) [48-19] | 313 nM | 712 (25) % | 712 nM | 1880 nM | 13% | 1630 (67) % | 1630 nM |  |  |  |  |  |  |  |  |
|  | CS(=O)(=O)c1cccc(N2CCN(C[C@H]3CC[C@@H](C(F)F)CC3)[C@@H](c3ccccc3)C2)c1 (single isomer, unassigned) [Cpd No 48-17] | 60 nM | 127 (39) % |  | 287 nM | 36% |  |  | 127 nM | 1350 nM |  |  |  |  |  |  |
|  | CC(C)[C@@H]1CN(c2cccc(S(C)(=O)=O)c2)CCN1C(=O)OCC(C)(C)C [5-6, neopentyl (R)-2-isopropyl-4-(3-(methylsulfonyl)phenyl)piperazine-1-carboxylate] |  | 1424 (48) % |  | 234 nM | 52% |  |  | 1420 nM | 9460 nM |  |  |  |  |  |  |
|  | CC(C)COC(=O)N1CCN(c2cccc(S(C)(=O)=O)c2)C[C@H]1C(C)C [5-7, isobutyl (R)-2-isopropyl-4-(3-(methylsulfonyl)phenyl)piperazine-1-carboxylate] |  | 1919 (44) % |  | 340 nM | 58% |  |  | 1920 nM | 5120 nM |  |  |  |  |  |  |
|  | CC(C)[C@@H]1CN(c2cccc(S(C)(=O)=O)c2)CCN1c1ncccn1 [7-2, (R)-2-(2-isopropyl-4-(3-(methylsulfonyl)phenyl)piperazin-1-yl)pyrimidine] |  |  |  | 1030 nM | 23% |  |  | > 20000 nM | 5500 nM |  |  |  |  |  |  |
|  | Cc1nc(N2CCN(c3ccc(F)c(S(C)(=O)=O)c3)C[C@H]2C(C)C)ncc1F [7-23, (R)-5-fluoro-2-(4-(4-fluoro-3-(methylsulfonyl)phenyl)-2-isopropylpiperazin-1-yl)-4-methylpyrimidine] |  | 1531 (52) % |  | 1130 nM | 73% |  |  | 1530 nM | > 10000 nM |  |  |  |  |  |  |
|  | CC(C)[C@@H]1CN(c2cccc(S(C)(=O)=O)c2)CCN1c1ccnc(C(F)(F)F)n1 [7-50, (R)-4-(2-isopropyl-4-(3-(methylsulfonyl)phenyl)piperazin-1-yl)-2-(trifluoromethyl)pyrimidine] |  | 2029 (50) % |  | 298 nM | 59% | 4587 (78) % |  | 2030 nM | 4590 nM |  |  |  |  |  |  |
|  | CC(C)[C@@H]1CN(c2ccc(F)c(S(C)(=O)=O)c2)CCN1c1ncc(CN(C)C)c(C(F)(F)F)n1 [15-3, (R)-1-(2-(4-(4-fluoro-3-(methylsulfonyl)phenyl)-2-isopropylpiperazin-1-yl)-4-(trifluoromethyl)pyrimidin-5-yl)-N,N-dimethylmethanamine] |  | 1144 (25) % |  |  |  |  |  | 1140 nM |  | 47 nM | 900 nM | 900 (93) % | 74 nM | 74 (17) % |  |
|  | CC(C)[C@@H]1CN(c2ccc(F)c(S(C)(=O)=O)c2)CCN1c1ncc(CN2CC(O)C2)c(C(F)(F)F)n1 [15-4, (R)-1-((2-(4-(4-fluoro-3-(methylsulfonyl)phenyl)-2-isopropylpiperazin-1-yl)-4-(trifluoromethyl)pyrimidin-5-yl)methyl)azetidin-3-ol] |  | 2838 (20) % |  |  |  |  |  | 2840 nM |  | 100 nM | 1440 nM | 1438 (104) % | 182 nM | 182 (13) % |  |
|  | CC(C)[C@@H]1CN(c2ccc(F)c(S(C)(=O)=O)c2)CCN1c1ncc(CNS(C)(=O)=O)c(C(F)(F)F)n1 [15-7, (R)-N-((2-(4-(4-fluoro-3-(methylsulfonyl)phenyl)-2-isopropylpiperazin-1-yl)-4-(trifluoromethyl)pyrimidin-5-yl)methyl)methanesulfonamide] | 512 nM | 2315 (23) % | 2320 nM |  |  |  |  |  |  | 40 nM | 1770 nM | 1773 (113) % | 198 nM | 198 (18) % |  |
|  | CC(C)[C@@H]1CN(c2ccc(F)c(S(C)(=O)=O)c2)CCN1c1nccc(OCC(F)(F)F)n1 [44-3, (R)-2-(4-(4-fluoro-3-(methylsulfonyl)phenyl)-2-isopropylpiperazin-1-yl)-4-(2,2,2-trifluoroethoxy)pyrimidine] |  |  |  |  |  |  |  |  |  | 67 nM | 91 nM |  | > 20000 nM |  | 91 (93) % |
|  | CS(=O)(=O)c1cccc(N2CCN(Cc3ccc(C(F)(F)F)c(Cl)c3)C(C3CCCCC3)C2)c1 (stereo not shown) [46-27, 1-(3-chloro-4-(trifluoromethyl)benzyl)-2-cyclohexyl-4-(3-(methylsulfonyl)phenyl)piperazine] |  | 1100 (77) % |  | 157 nM | 79% |  |  | 1100 nM | > 10000 nM |  |  |  |  |  |  |
|  | CC(C)[C@@H]1CN(c2cccc(S(C)(=O)=O)c2)CCN1c1ncc(Cl)cn1 [Cpd No 7-4, (R)-5-chloro-2-(2-isopropyl-4-(3-(methylsulfonyl)phenyl)piperazin-1-yl)pyrimidine] |  | 1219 (70) % |  | 281 nM | 76% |  |  | 1220 nM | > 10000 nM |  |  |  |  |  |  |
|  | CC(C)[C@@H]1CN(c2cccc(S(C)(=O)=O)c2)CCN1c1ccc(C(F)(F)F)cn1 [Cpd No 7-35, (R)-2-isopropyl-4-(3-(methylsulfonyl)phenyl)-1-(5-(trifluoromethyl)pyridin-2-yl)piperazine] |  | 138 (97) % |  | 13 nM | 79% |  |  | 138 nM | > 10000 nM |  |  |  |  |  |  |
| 244 (8) % | CC(C)[C@@H]1CN(c2ccc(F)c(S(C)(=O)=O)c2)CCN1c1ncc(C(=O)N(C)C)c(C(F)(F)F)n1 [Cpd No 17-1, (R)-2-(4-(4-fluoro-3-(methylsulfonyl)phenyl)-2-isopropylpiperazin-1-yl)-N,N-dimethyl-4-(trifluoromethyl)pyrimidine-5-carboxamide] |  |  |  |  |  |  |  |  |  | 123 nM | 667 nM |  | 244 nM |  | 667 (84) % |
|  | CS(=O)(=O)c1cccc(N2CCN(CC3CCC(O)(C(F)(F)F)CC3)[C@@H](c3ccccc3)C2)c1 (stereo partly drawn) [Cpd No 48-1, (S)-4-((4-(3-(methylsulfonyl)phenyl)-2-phenylpiperazin-1-yl)methyl)-1-(trifluoromethyl)cyclohexan-1-ol] |  | 760 (31) % | 760 nM | 1520 nM | 19% | 3946 (105) % | 3950 nM |  |  |  |  |  |  |  |  |
|  | CC1(C)CCC(CN2CCN(c3cccc(S(C)(=O)=O)c3)C[C@@H]2c2ccccc2)CC1 [Cpd No 48-4, (S)-1-((4,4-dimethylcyclohexyl)methyl)-4-(3-(methylsulfonyl)phenyl)-2-phenylpiperazine] | 39 nM | 279 (61) % | 279 nM | 301 nM | 39% | 6447 (79) % | 6450 nM |  |  |  |  |  |  |  |  |
